This note sets out measurements from PubChem BioAssay (NCI).

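Briefly, cells in 96-well plates were exposed to five compound concentrations for 48 h, and endpoints were estimated by linear interpolation. The concentration for full growth arrest is given as TGI.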

Among the test systems are LOX IMVI melanoma; IGROV1 ovarian; CCRF-CEM leukemia; HCC-2998 colon; UO-31 renal; 786-0 renal; A549 NSCLC; M14 melanoma; A498 renal; SF-539 CNS; OVCAR-4 ovarian; MCF7 breast; HL-60(TB) leukemia; HCT-15 colon; UACC-62 melanoma; T-47D breast; OVCAR-5 ovarian.
Common to all, as to experiment: growth of human tumour cells (NCI), 48 h

As for `CC1(C)CCc2c(c(N=Nc3ccc(S(N)(=O)=O)cc3)c3ccccc3c2O)O1`, the TGI in the experiment with LOX IMVI melanoma was 21.3 µM; in the experiment with IGROV1 ovarian it was 40.1 µM; with CCRF-CEM leukemia it was 24.3 µM; in the experiment with HCC-2998 colon it was 15.9 µM; with UO-31 renal it was 40.4 µM; in the experiment on 786-0 renal, 23.2 µM. The TGI in the experiment with A549 NSCLC amounted to 30.2 µM; in the experiment with M14 melanoma, 38.2 µM; in the experiment on A498 renal it was 7.28 µM; in the experiment with SF-539 CNS, 22.2 µM; with OVCAR-4 ovarian, 26 µM; in the experiment with MCF7 breast, 33.1 µM. Besides, the TGI was found to be 49.9 µM in the experiment with HL-60(TB) leukemia; 43.9 µM with HCT-15 colon; 34.3 µM in the experiment with UACC-62 melanoma; 49.3 µM with T-47D breast; 38.2 µM with OVCAR-5 ovarian.

Consider `O=C(N/N=C/c1c(-c2ccccc2)no[n+]1[O-])N1CCOCC1`, for which the TGI in the experiment with LOX IMVI melanoma, with IGROV1 ovarian, with CCRF-CEM leukemia, with HCC-2998 colon, with UO-31 renal and in the experiment on 786-0 renal was above 100 µM throughout. The TGI with A549 NSCLC, with M14 melanoma, with A498 renal, with SF-539 CNS, with OVCAR-4 ovarian and in the experiment on MCF7 breast was above 100 µM in each case. The TGI in the experiment with HL-60(TB) leukemia, in the experiment on HCT-15 colon, in the experiment on UACC-62 melanoma, with T-47D breast and in the experiment with OVCAR-5 ovarian was above 100 µM throughout.

For `CCN(CC)CCC(=O)c1ccc(C)cc1`, the TGI in the experiment with LOX IMVI melanoma was above 100 µM; in the experiment on IGROV1 ovarian it was 37.6 µM; with CCRF-CEM leukemia, 31.2 µM; in the experiment on HCC-2998 colon, above 100 µM; in the experiment with UO-31 renal, 42 µM; in the experiment with 786-0 renal it was 34.3 µM. Besides, the TGI in the experiment with A549 NSCLC was above 100 µM; in the experiment with M14 melanoma, 35.8 µM; in the experiment with A498 renal it was 67.2 µM; in the experiment on SF-539 CNS, above 100 µM; in the experiment with OVCAR-4 ovarian, 50.1 µM; in the experiment on MCF7 breast, 17.4 µM. Further, the TGI was above 100 µM with HL-60(TB) leukemia; 33.6 µM in the experiment on HCT-15 colon; above 100 µM in the experiment on UACC-62 melanoma; 39.8 µM in the experiment with T-47D breast; 31.4 µM in the experiment with OVCAR-5 ovarian.

As for `CC(C)(Oc1ccccc1)C(=O)Sc1c(-c2ccccc2)c(=O)n(-c2ccccc2)c(=S)n1-c1ccccc1`, the TGI is above 100 µM in the experiment with LOX IMVI melanoma; 47.6 µM in the experiment on IGROV1 ovarian; above 100 µM in the experiment on CCRF-CEM leukemia; above 100 µM in the experiment on HCC-2998 colon; 82.8 µM in the experiment on UO-31 renal; above 100 µM with 786-0 renal. The TGI was above 100 µM with A549 NSCLC; above 100 µM in the experiment with M14 melanoma; above 100 µM with A498 renal; 45.4 µM in the experiment on SF-539 CNS; above 100 µM in the experiment with OVCAR-4 ovarian; above 100 µM in the experiment with MCF7 breast. Further, the TGI in the experiment with HL-60(TB) leukemia was 64.7 µM; with HCT-15 colon, above 100 µM; in the experiment on UACC-62 melanoma, above 100 µM; in the experiment on T-47D breast it was above 100 µM; in the experiment with OVCAR-5 ovarian, above 100 µM.

In the case of `C=C1C(=O)O[C@@H]2[C@@H]3O[C@@H](C[C@@H]13)[C@](C)(O)CC/C=C(\C)CCC[C@@H]2C`, the TGI stood at 19.2 µM with LOX IMVI melanoma; 22.6 µM in the experiment with IGROV1 ovarian; 34.8 µM in the experiment on CCRF-CEM leukemia; 32.7 µM with HCC-2998 colon; 23 µM in the experiment with UO-31 renal; 18.9 µM with 786-0 renal. For the same compound, the TGI turned out to be 34.3 µM in the experiment on A549 NSCLC; 27 µM in the experiment with M14 melanoma; 26.2 µM in the experiment on A498 renal; 24.9 µM with SF-539 CNS; 29.6 µM in the experiment on OVCAR-4 ovarian; 22.1 µM in the experiment with MCF7 breast. The TGI is 10.4 µM in the experiment on HL-60(TB) leukemia; 33.4 µM with HCT-15 colon; 25.4 µM in the experiment with UACC-62 melanoma; 43.9 µM in the experiment on T-47D breast; 48 µM in the experiment with OVCAR-5 ovarian.

As for `COc1cc2nc(-c3cccs3)nc(N3CCN(c4ccccc4C(F)(F)F)CC3)c2cc1OC`, the TGI with LOX IMVI melanoma, in the experiment with IGROV1 ovarian, in the experiment on CCRF-CEM leukemia, in the experiment on HCC-2998 colon, in the experiment on UO-31 renal and in the experiment on 786-0 renal was above 100 µM in each case. Further, the TGI with A549 NSCLC, in the experiment with M14 melanoma, in the experiment on A498 renal, in the experiment with SF-539 CNS, with OVCAR-4 ovarian and in the experiment on MCF7 breast was above 100 µM throughout. Moreover, the TGI with HL-60(TB) leukemia, in the experiment on HCT-15 colon, in the experiment with UACC-62 melanoma, with T-47D breast and in the experiment on OVCAR-5 ovarian was above 100 µM throughout.

Turning to `c1ccc(C2=NCCN2)c(C2=NCCN2)c1`, the TGI in the experiment with LOX IMVI melanoma, in the experiment with IGROV1 ovarian, in the experiment with CCRF-CEM leukemia, in the experiment with HCC-2998 colon, with UO-31 renal and in the experiment with 786-0 renal was above 100 µM throughout. Further, the TGI in the experiment with A549 NSCLC, in the experiment on M14 melanoma, in the experiment with A498 renal, in the experiment with SF-539 CNS, in the experiment with OVCAR-4 ovarian and in the experiment on MCF7 breast was above 100 µM each time. The TGI in the experiment with HL-60(TB) leukemia, with HCT-15 colon, in the experiment with UACC-62 melanoma, in the experiment on T-47D breast and in the experiment on OVCAR-5 ovarian was above 100 µM throughout.

Turning to `COC(=O)[C@]12CC[C@H]3CC[C@H]([C@H]31)[C@H](c1ccccc1)N2`, the TGI stood at 32.1 µM in the experiment with LOX IMVI melanoma; 34.3 µM with IGROV1 ovarian; 95.9 µM with CCRF-CEM leukemia; 26.8 µM in the experiment on HCC-2998 colon; 31.2 µM with UO-31 renal; 29.4 µM with 786-0 renal. In addition, the TGI in the experiment on A549 NSCLC turned out to be 37.3 µM; in the experiment on M14 melanoma, 32.7 µM; in the experiment on A498 renal, 31.9 µM; in the experiment with SF-539 CNS it was 30.6 µM; in the experiment on OVCAR-4 ovarian, 31.6 µM; in the experiment with MCF7 breast, 31.2 µM. The TGI with HL-60(TB) leukemia came to 47.6 µM; with HCT-15 colon, 38.4 µM; in the experiment with UACC-62 melanoma, 29.1 µM; in the experiment with T-47D breast, 50.3 µM; in the experiment with OVCAR-5 ovarian, 31.4 µM.

Regarding `Cc1cccc(C)c1NC(=O)C(=O)CC(=O)/C=C/c1ccccc1`, the TGI in the experiment on LOX IMVI melanoma, with IGROV1 ovarian, in the experiment on CCRF-CEM leukemia, in the experiment with HCC-2998 colon, in the experiment on UO-31 renal and in the experiment with 786-0 renal was above 100 µM each time. The TGI with A549 NSCLC, in the experiment with M14 melanoma, in the experiment on A498 renal, in the experiment on SF-539 CNS, in the experiment with OVCAR-4 ovarian and with MCF7 breast was above 100 µM in each case. The TGI in the experiment with HL-60(TB) leukemia, with HCT-15 colon, in the experiment on UACC-62 melanoma, in the experiment with T-47D breast and in the experiment on OVCAR-5 ovarian was above 100 µM each time.

Regarding `O=C(c1c(F)c(F)c(F)c(F)c1F)N1CCN(C(=O)c2c(F)c(F)c(F)c(F)c2F)C1=S`, the TGI in the experiment on LOX IMVI melanoma was 6.57 µM; in the experiment on IGROV1 ovarian it was 8.96 µM; in the experiment with CCRF-CEM leukemia, above 100 µM; with HCC-2998 colon, 22.7 µM; in the experiment with UO-31 renal it was 10 µM; in the experiment with 786-0 renal, 27.3 µM. Moreover, the TGI in the experiment on A549 NSCLC stood at 29.5 µM; in the experiment on M14 melanoma it was 4.02 µM; with A498 renal, 32 µM; with SF-539 CNS, 24 µM; in the experiment with OVCAR-4 ovarian it was 10.4 µM; with MCF7 breast it was 21.1 µM. Further, the TGI was above 100 µM in the experiment with HL-60(TB) leukemia; 6.15 µM in the experiment with HCT-15 colon; 9.33 µM in the experiment with UACC-62 melanoma; 24.2 µM in the experiment with T-47D breast; 29.4 µM in the experiment on OVCAR-5 ovarian.
